Test results taken from patent US11780833B2, “Emetine derivatives, prodrugs containing same, and methods of treating conditions using same” (HOWARD UNIVERSITY, priority 2011, dated 2023).
Read-outs that look alike come from different tables or passages of the source.

Legend:
[1] = In vivo toxicity study in mice
Text: Each experiment or dosage involved three mice, and drug solutions were made in 1% DMSO/PBS. Each experiment was done three times.
The compounds were subjected to in vivo toxicity studies as follows. […] This observation was the same on the third and fourth day.

LNCaP cells = experiment: Cytotoxicity in LNCaP prostate cancer cell line; assay type: cell-based; details: Homo sapiens
Description: (§1) Studies were carried out on three prostate cancer cell lines: LNCaP, PC3, and DU145. […] There was not a significant difference in cytotoxicity of emetine between days 3 and 7. […] This increase is most likely due to the release of emetine from the dithiocarbamate salt over the time period. Further drug release studies at pH 5 confirmed about 45% release of emetine from the dithiocarbamate salt after 3-day incubation at this acidic pH maintained at 37° C., whereas release of emetine from the dithiocarbamate salt was not observed at physiological pH (e.g., about 7.4).
(§2) Various compounds prepared according to Examples 1-5 were studied in LNCaP, PC3, and DU145 cells.

DU145 cells [2] = experiment: Cytotoxicity in 100% confluent DU145 cells (Example 9); assay type: cell-based; details: Homo sapiens, DU-145, 120 h; DU145, 100% confluent cells, medium pH 6.7, day 5
Description: (§3) The cytotoxicity of emetine and Compound 2 (as produced above in Example 1 and referred to in the figures as “ESA44”) was evaluated in DU145 and PC3 cells using 100% confluent cells. Cells were plated at 40,000 cells per well and allowed to grow for 4 days until the pH of the medium was 6.7. Compound 2 was added in RPMI, pH 7.0. The effect of the pH on the hydrolysis of Compound 2 to release emetine was evaluated. FIGS. 1 and 2 are graphs showing the viability of DU145 and PC3 cells as percent of vehicle on day 5 versus concentration of emetine and Compound 2.

PC3 cells [3] = experiment: cells; assay type: cell-based; details: Homo sapiens
Description: as §1, §2
(§4) Various compounds prepared according to Example 6 were studied in DU145 and PC3 cells. The IC50 was determined at 3, 5, and 7 days.

DU145 cells [4] = experiment: cells; assay type: cell-based; details: Homo sapiens
Description: as §1, §2, §4

PC3 cells [5] = experiment: Cytotoxicity in 100% confluent PC3 cells (Example 9); assay type: cell-based; details: Homo sapiens, PC-3, 120 h; PC3, 100% confluent cells, medium pH 6.7, day 5
Description: as §3

[6] = pH-responsiveness by HPLC: emetine released in aqueous phosphate buffer; assay type: physicochemical; details: 37° C.
Description: Relative rates of hydrolysis of the compounds listed in Table 5 below over a 48 hour period were evaluated using the percent emetine released from the acid catalyzed hydrolysis of compounds 1 to 6.
The compounds were incubated in aqueous phosphate buffer at pH 5.5, 6.5 and 7.4 at 37° C. over a 48 hour period. High performance liquid chromatography (HPLC) was employed to analyze the samples and quantify how much emetine was released. The compounds whose hydrolysis to emetine is shown in table 5 are all 100% stable at physiological pH 7.4 up to a 5 day exposure.

CC[C@H]1CN2CCc3cc(OC)c(OC)cc3[C@@H]2C[C@@H]1C[C@H]1NCCc2cc(OC)c(OC)cc21 [Emetine]
toxicity observation ([1]; 33 and 11 MPK): slight weight loss | toxicity observation ([1]; single dose 100 MPK, within 48 hours): killed all three mice | IC50 (LNCaP cells; 72 h, 3 day exposure, read-out: IC50): 32.9 nM | IC50 (LNCaP cells; 168 h, 7 days, read-out: IC50 after 7 days): 27.8 ± 3.84 nM | IC50 (LNCaP cells; 168 h, seven day exposure, read-out: IC50): 31.6 nM | IC50 (DU145 cells [2]): 12900 ± 2390 nM | IC50 (PC3 cells [3]; PC-3, 72 h, PC3, 3 day exposure, read-out: IC50): 35.1 nM | IC50 (PC3 cells [3]; PC-3, 168 h, PC3, 7 days, read-out: IC50 after 7 days): 26.8 ± 2.28 nM | IC50 (PC3 cells [3]; PC-3, 168 h, PC3, seven day exposure, read-out: IC50): 29.4 nM | IC50 (DU145 cells [4]; DU-145, 72 h, DU145, 3 day exposure, read-out: IC50): 37.9 nM | IC50 (DU145 cells [4]; DU-145, 168 h, DU145, 7 days, read-out: IC50 after 7 days): 23.7 ± 1.22 nM | IC50 (DU145 cells [4]; DU-145, 168 h, DU145, seven day exposure, read-out: IC50): 23.4 nM | IC50 (PC3 cells [5]): 3850 ± 149 nM

CCC1CN2CCc3cc(OC)c(OC)cc3C2CC1CC1c2cc(OC)c(OC)cc2CCN1C(=O)/C=C(/C)C(=O)O (stereo not drawn) [Compound 5]
toxicity observation ([1]; 11 and 33 MPK, day 5): no noticeable toxicity effect | toxicity observation ([1]; 100 MPK or below (33 and 11 MPK), through third and fourth day): no noticeable toxicity | toxicity observation ([1]; 100 MPK, day 5): slight weight loss | % Emetine at pH 5.5 ([6]; pH 5.5, 0 hr): 0.0% | % Emetine at pH 5.5 ([6]; pH 5.5, 24 hrs): 61.5% | % Emetine at pH 5.5 ([6]; pH 5.5, 48 hrs): 77.3% | % Emetine at pH 6.5 ([6]; pH 6.5, 0 hr): 0.0% | % Emetine at pH 6.5 ([6]; pH 6.5, 24 hrs): 24.9% | % Emetine at pH 7.4 to 8.0 over 72 hrs ([6]; pH 7.4 to 8.0, 0 hrs): 0.0% | % Emetine at pH 7.4 to 8.0 over 72 hrs ([6]; pH 7.4 to 8.0, 24 hrs): 0.0% | % Emetine at pH 7.4 to 8.0 over 72 hrs ([6]; pH 7.4 to 8.0, 48 hrs): 0.0%
